# Data from patent US20220220206A1, “TREATING CHRONIC LIVER DISEASE” (Mayo Foundation for Medical Education and Research, priority 2019, published 2022).
# Tests used:
# [1] = tested on: FFC diet-fed C57BL/6J mice (diet-induced NASH); experiment: FFC diet-induced NASH mouse model, VCAM-1 blockade (antibody or AGI-1067); format: in vivo; conditions: AGI-1067 25 mg/kg i.p. daily for 15 days, vs vehicle
# Text: C57BL/6J male mice were purchased from Jackson Laboratory (Bar Harbor, Me.). Mice were housed and bred in a temperature-controlled 12:12-hour light-dark cycle facility with free access to diet. The mice were fed either a chow diet (5053 PicoLab Rodent Diet 20, LabDiet, St Louis, Mo.) or a diet rich in fat, fructose, and cholesterol (FFC) at 8-weeks old for 24 weeks. FFC diet consists of 40% energy as fat (12% saturated fatty acid, 0.2% cholesterol) (AIN-76A Western Diet, TestDiet, St Louis, Mo.), with fructose (23.1 g/L) and glucose (18.9 g/L) in the drinking water. The FFC diet induces steatohepatitis with pronounced hepatocellular ballooning, lipoapoptosis, and progressive fibrosis with a high fidelity to the human NASH histology and metabolic profile. At 20 weeks on the diet, the mice were randomized to receive either anti-VCAM-1 neutralizing antibody (M/K-2.7), (Genetex, GTX14360) or IgG isotype antibody (BE0088, InVivoMAb). Mice were injected with 10 mg/kg body weight of either of the antibodies intraperitoneally, twice per week for 4 weeks. Another cohort of Chow or FFC diet-fed mice was randomized to receive either vehicle or VCAM-1 inhibitor succinobucol (AGI-1067). Mice were injected with either vehicle or 25 mg/kg body weight of AGI-1067 intraperitoneally, daily for 15 days. Total caloric intake at the 3rd week of VCAM-1 antibody treatment and the first week of AGI-1067 treatment was calculated based on the weight of food and drinking water consumption. At the third week of anti-VCAM-1 neutralizing antibody treatment, metabolic parameters, including oxygen consumption, carbon dioxide production, and locomotor activity, were measured using a Comprehensive Lab Animal Monitoring System (CLAMS, Columbus Instruments, OH). Anti-VCAM-1 antibody from Bio Xcell (West Lebanon, N.H.), (BE0027) was used for the CLAMS study. Blood glucose levels and plasma insulin levels were measured using Assure 4 (Arkray, Edina, Minn.) and Ultra-Sensitive Mouse Insulin enzyme-linked immunosorbent assay (ELISA) kit (Crystal Chem Inc., Downers Grove, Ill.), respectively. Homeostasis model assessment of insulin resistance (HOMA-IR) was calculated by using the following formula: HOMA-IR=26×fasting insulin level (ng/mL)×fasting glucose level (mg/dL)/405. Mice were sacrificed under general anesthesia induced by a ketamine/xylazine cocktail (83 mg/kg ketamine, 16 mg/kg xylazine, intraperitoneal injection). All interventions were made during the light cycle. Blood and liver samples were collected for further study.
# Liver triglyceride levels were measured in mouse liver homogenates. Fifty milligrams of liver tissue was homogenized in a 5% NP-40 solution. EnzyChrom Triglyceride Kit (BioAssay System, CA) was used for the assay according to the manufacturer's instruction. Photometric absorbance was read at 570 nm using a Synergy H1 microplate reader (BioTek). Serum alanine aminotransferase (ALT) levels were measured by VetScan2 (Abaxis Veterinary Diagnostics, Union City, Calif.).
# Liver histology was performed using tissue fixed in 10% formalin, dehydrated, and embedded in paraffin. Hematoxylin and eosin (H&E) staining and Sirius red staining were performed. Severity of NASH was assessed using nonalcoholic fatty liver disease (NAFLD) activity score (NAS), a semi-quantitative score that accounts for steatosis, ballooned hepatocytes, and lobular inflammation. Terminal deoxynucleotidyl transferase deoxyuridine triphosphate nick-end labeling (TUNEL) assay was performed using the ApopTag Peroxidase In Situ Apoptosis Detection Kit (Millipore Sigma, St. Louis, Mo.); diaminobenzidine (DAB) was used as a peroxidase substrate (Vector Laboratories, Burlingame, Calif.); 0.5% methyl green was used for the counterstain. […]
# [2] = tested on: VCAM-1 expression in TSEC; experiment: Palmitate-induced VCAM-1 expression in TSEC; format: cell-based, mouse; conditions: 500 μM PA, 16 hours
# Method: Transformed mouse liver sinusoidal endothelial cells (TSEC) were obtained. Primary human liver sinusoidal endothelial cells (LSEC) were purchased from ScienCell Research Laboratories (San Diego, Calif.). To yield primary mouse LSECs, cell suspensions obtained with liver collagenase perfusion were centrifuged at 50 g for 2 minutes to remove hepatocytes. The supernatant which includes non-parenchymal cells was subjected to LSEC isolation using CD146 MicroBeads (Miltenyi Biotec, Bergisch Gladbach, Germany) following the manufacture's instruction. […]
# Cells were lysed using RIPA buffer (50 mM Tris-HCl, pH 7.4; 1% Nonidet P-40; 0.25% sodium deoxycholate; 150 mM NaCl; 1 mM EDTA with protease inhibitors) followed by centrifugation at 15,000 g for 15 minutes at 4° C. Protein concentrations of the lysates were measured by the Bradford assay method (Sigma-Aldrich). […] Proteins were detected using enhanced chemiluminescence reagents (GE Healthcare, Chicago, Ill.). β-actin and GAPDH protein levels were used as loading controls.
# Total RNA was isolated with the RNeasy Mini Kit (Qiagen, Valencia, Calif.) and was reverse transcribed with moloney murine leukemia virus reverse transcriptase and oligo-dT random primers (both from Invitrogen, CA, USA). Quantification of gene expression was performed by real-time PCR using SYBR green fluorescence on a LightCycler 480 instrument (Roche Applied, IN, USA). […]
# [3] = tested on: active ITGβ1 in Huh7 cells; experiment: LPC-induced ITGβ1 activation in Huh7 cells (immunoprecipitation/immunoblot, immunofluorescence); format: cell-based, human; conditions: 10 μM SB203580
# Method: Whole cell lysates (WCL) were obtained using immuno-precipitate (IP) buffer (50 mM Tris-HCl, pH 7.4; 1% Nonidet P-40; 150 mM NaCl) with protease inhibitor and phosphatase inhibitor followed by centrifugation at 15,000 g for 15 minutes at 4° C. Protein concentrations of the lysates were measured by the Bradford assay method (Sigma-Aldrich). In pull-down experiments, aliquots containing 1 mg of protein were incubated with either anti-ITGβ1 (MAB13), anti-ITGβ1 (9EG7) antibody or isotype IgG control antibody for 1 hour at 4° C., then incubated overnight with protein G sepharose beads (GE Healthcare) under rotary agitation. Pelleted proteins were washed with IP buffer for seven times, solubilized in SDS sample buffer, boiled for 10 minutes, and then subjected to SDS-PAGE and immunoblot analysis.
# Huh7 cells were seeded on fibronectin-coated coverslips and fixed with 4% paraformaldehyde following LPC treatment. After permeabilization using 0.2% TritonX-100, the cells were blocked using blocking buffer (5% bovine serum albumin, 0.1% glycine in PBS) for one hour at room temperature, and then incubated with the primary antibody of interest overnight at 4° C. […] Pearson's correlation coefficient of co-localization was employed to quantify the degree of colocalization between fluorophores. Ten to 20 random fields in each group were selected for quantification and statistical analysis.
Structure (SMILES),MoMF-related hepatic inflammation by Galectin-3 staining of liver sections [1],NAS score [1],hepatic mRNA expression of Acta2 (α-SMA) [1],hepatic mRNA expression of Ccr2 [1],hepatic mRNA expression of Cd68 [1],hepatic mRNA expression of Col1α1 [1],hepatic mRNA expression of Tnfα [1],hepatic steatosis [1],liver injury as number of TUNEL positive hepatocyte [1],liver triglyceride content [1],plasma ALT levels [1],stellate cell activation and liver fibrogenesis by Sirius red staining [1],stellate cell activation and liver fibrogenesis by immunohistochemistry for α-SMA [1],PA-induced VCAM-1 protein level (Western blot) [2],PA-induced VCAM-1 mRNA expression ([2]; real-time qPCR),LPC-induced activation of ITGβ1 (immunofluorescence microscopy) ([3]; 5 μM LPC 20 minutes),"LPC-induced increase in active ITGβ1 (9EG7 immunoprecipitation, immunoblot) ([3]; 20 μM LPC 15-30 min)"
"CC(C)(Sc1cc(C(C)(C)C)c(O)c(C(C)(C)C)c1)Sc1cc(C(C)(C)C)c(OC(=O)CCC(=O)O)c(C(C)(C)C)c1 [AGI-1067, succinobucol]",reduced,reduced,attenuated,reduced,reduced,attenuated,reduced,did not alter,reduced,did not alter,did not reach the statistical significance,attenuated,attenuated,inhibits,inhibits,–,–
C[S+]([O-])c1ccc(-c2nc(-c3ccncc3)c(-c3ccc(F)cc3)[nH]2)cc1 (centres unmarked) [SB203580],–,–,–,–,–,–,–,–,–,–,–,–,–,–,–,diminished,reduced
